# Test results as given in patent US11530219B2, “Ligands to cereblon (CRBN)” (DANA-FARBER CANCER INSTITUTE, INC., priority 2018, dated 2022).
# pEC50: −log10 of the molar value. Entries after “also recorded” stand apart in the source; their conditions may differ.
# Target: CRBN (Homo sapiens (Human), UniProt Q96SW2)
# Test: Cellular CRBN dBET6 displacement assay (BRD4BD2-GFP/mCherry reporter cells)
# Format: cell-based
# Conditions: Flip-In 293 cells stably expressing BRD4BD2-GFP, 100 nM dBET6, 5 hours
# Description: BRD4BD2 were subcloned into mammalian pcDNA5/FRT Vector (Ampicillin and Hygromycin B resistant) modified to contain MCS-eGFP-P2A-mCherry. […] Following a 2-3 passage cycle, FACS (FACSAria™ II, BD) was used to enrich for cells expressing eGFP and mCherry.
# Signal from minimal 3000 events per well was acquired and the eGFP and mCherry florescence monitored. Data was analyzed using FlowJo® (FlowJo®, LCC). […] The eGFP protein abundance relative to mCherry was then quantified as a ten-fold amplified ratio for each individual cell using the formula: 10×eGFP/mCherry. The median of the ratio was then calculated per set, normalized to the median of the DMSO ratio.
# This assay provided a readout of cellular CRBN binding impacted by the permeability of the molecule tested.
# CRBN, sequence (Q96SW2 whole entry): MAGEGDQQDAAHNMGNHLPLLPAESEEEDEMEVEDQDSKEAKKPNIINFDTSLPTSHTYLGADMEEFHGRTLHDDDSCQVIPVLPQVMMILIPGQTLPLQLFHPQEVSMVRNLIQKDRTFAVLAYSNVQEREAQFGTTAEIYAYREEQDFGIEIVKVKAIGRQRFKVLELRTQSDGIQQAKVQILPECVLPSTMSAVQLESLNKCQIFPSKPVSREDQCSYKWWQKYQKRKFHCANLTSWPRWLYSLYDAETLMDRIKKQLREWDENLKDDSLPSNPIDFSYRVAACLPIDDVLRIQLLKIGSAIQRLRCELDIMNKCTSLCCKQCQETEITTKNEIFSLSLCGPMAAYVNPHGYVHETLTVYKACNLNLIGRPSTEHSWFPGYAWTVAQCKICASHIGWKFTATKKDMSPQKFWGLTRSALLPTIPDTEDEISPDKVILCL
row,Structure (SMILES),Cellular CRBN-BRD4 dBET6 displacement EC50
1,"O=C1CCC(N2Cc3c(Nc4ccnc(NCCCN5CCCC5=O)n4)cccc3C2=O)C(=O)N1 (centres unmarked) [Compound 22, 3-(1-oxo-4-((2-((3-(2-oxopyrrolidin-1-yl)propyl)amino)pyrimidin-4-yl)amino)isoindolin-2-yl)piperidine-2,6-dione]",inactive; also recorded: Not binding

# Same assay, conditions: Flip-In 293 cells stably expressing BRD4BD2-GFP, 100 nM dBET6, 5 hours; read-out: Cellular CRBN-BRD4 dBET6 displacement EC50
row,Structure (SMILES),pEC50
1,"O=C1CCC(N2Cc3c(Nc4ccnc(Nc5ccc6c(c5)-c5ccccc5C6)n4)cccc3C2=O)C(=O)N1 (centres unmarked) [Compound 46, 3-(4-((2-((9H-fluoren-3-yl)amino)pyrimidin-4-yl)amino)-1-oxoisoindolin-2-yl)piperidine-2,6-dione]",5.95
2,"O=C1CCC(N2Cc3c(Nc4ccnc(N5CCC[C@H]5CO)n4)cccc3C2=O)C(=O)N1 (stereo partly drawn) [Compound 29, 3-(4-((2-((S)-2-(hydroxymethyl)pyrrolidin-1-yl)pyrimidin-4-yl)amino)-1-oxoisoindolin-2-yl)piperidine-2,6-dione]",5.09
3,"O=C1CCC(N2Cc3c(Nc4ccnc(Nc5ccc6c(c5)CCN6)n4)cccc3C2=O)C(=O)N1 (centres unmarked) [Compound 43, 3-(4-((2-(indolin-5-ylamino)pyrimidin-4-yl)amino)-1-oxoisoindolin-2-yl)piperidine-2,6-dione]",4.60
4,"O=C1CCC(N2Cc3c(Nc4ccnc(-c5ccc(-c6ccccc6)cc5)n4)cccc3C2=O)C(=O)N1 (centres unmarked) [Compound 31, 3-(4-((2-([1,1′-biphenyl]-4-yl)pyrimidin-4-yl)amino)-1-oxoisoindolin-2-yl)piperidine-2,6-dione]",5.06
5,"O=C1CCC(N2Cc3c(Nc4ccnc(N5CCC[C@@H]5CO)n4)cccc3C2=O)C(=O)N1 (stereo partly drawn) [Compound 30, 3-(4-((2-((R)-2-(hydroxymethyl)pyrrolidin-1-yl)pyrimidin-4-yl)amino)-1-oxoisoindolin-2-yl)piperidine-2,6-dione]",5.09
6,"O=C1CCC(N2Cc3c(Nc4ccnc(NC56CC7CC(CC(C7)C5)C6)n4)cccc3C2=O)C(=O)N1 (centres unmarked) [Compound 44, 3-(4-((2-(((3s,5s,7s)-adamantan-1-yl)amino)pyrimidin-4-yl)amino)-1-oxoisoindolin-2-yl)piperidine-2,6-dione]",6.04
7,"COc1cccc(-c2nccc(Nc3cccc4c3CN(C3CCC(=O)NC3=O)C4=O)n2)c1 (centres unmarked) [Compound 32, 3-(4-((2-(3-methoxyphenyl)pyrimidin-4-yl)amino)-1-oxoisoindolin-2-yl)piperidine-2,6-dione]",5.38
8,"COc1cc(F)ccc1-c1nccc(Nc2cccc3c2CN(C2CCC(=O)NC2=O)C3=O)n1 (centres unmarked) [Compound 33, 3-(4-((2-(4-fluoro-2-methoxyphenyl)pyrimidin-4-yl)amino)-1-oxoisoindolin-2-yl)piperidine-2,6-dione]",5.59
9,"O=C1CCC(N2Cc3c(Nc4ccnc(-c5cc6ccccc6o5)n4)cccc3C2=O)C(=O)N1 (centres unmarked) [Compound 36, 3-(4-((2-(benzofuran-2-yl)pyrimidin-4-yl)amino)-1-oxoisoindolin-2-yl)piperidine-2,6-dione]",5.65
10,"O=C1CCC(N2Cc3c(Nc4ccnc(Nc5ccc6c(c5)OCCO6)n4)cccc3C2=O)C(=O)N1 (centres unmarked) [Compound 19, 3-(4-((2-((2,3-dihydrobenzo[b][1,4]dioxin-6-yl)amino)pyrimidin-4-yl)amino)-1-oxoisoindolin-2-yl)piperidine-2,6-dione]",5.44
11,"CC(=O)c1ccc(-c2nccc(Nc3cccc4c3CN(C3CCC(=O)NC3=O)C4=O)n2)cc1 (centres unmarked) [Compound 20, 3-(4-((2-(4-acetylphenyl)pyrimidin-4-yl)amino)-1-oxoisoindolin-2-yl)piperidine-2,6-dione]",5.90

# Same assay, conditions: unit printed as 'M' in the text (Table 1 gives μM); 100 nM dBET6, 5 hours; read-out: Cellular CRBN engagement EC50
row,Structure (SMILES),EC50 [µM]
1,"O=C1CCC(N2Cc3c(Nc4ccnc(-c5ccc(F)cc5)n4)cccc3C2=O)C(=O)N1 (centres unmarked) [Compound 39, 3-(4-((2-(4-fluorophenyl)pyrimidin-4-yl)amino)-1-oxoisoindolin-2-yl)piperidine-2,6-dione]",0.742
2,"CCN(Cc1ccccc1)c1nccc(Nc2cccc3c2CN(C2CCC(=O)NC2=O)C3=O)n1 (centres unmarked) [Compound 26, 3-(4-((2-(benzyl(ethyl)amino)pyrimidin-4-yl)amino)-1-oxoisoindolin-2-yl)piperidine-2,6-dione]",0.67
